Test results from patent publication US7902174B2, “Antiviral composition” (priority 2009, dated 2011).
Values joined by “and” are separate entries in the source; they are usually repeats but may differ in a detail not shown here. Equal entries are not always repeated.

Experiments:
[1] = tested on: Human Immunodeficiency Virus; experiment: Anti-HIV testing in cell culture: inhibition of cell-to-cell transmission of HIV measured as p24 protein production; type: cell-based; settings: for MEAN P24 value: mean of three tests; for % VIRAL CONCENTRATION: relative to 0.0 μM = 100.0; for P24 value as measurement of HIV concentration: separate efficacy tests (samples 1-3)
Description: Testing was performed independently at the NIH using standard testing protocol.

Sprague-Dawley rats = experiment: In vivo toxicity study in rats, oral administration (gavage); settings: increasing amounts up to 2 g/kg body weight
Description: (b) Oral Administration: Sprague-Dawley rats weighing approximately 250 g were orally gavaged with increasing amounts of polysulfate polymethylsulfate dextrin dissolved in sterile water up to a dose of 2 g/kg body weight.

Substance: polysulfate polymethylsulfate dextrin
- MEAN P24 value ([1]; 0.32 μM): 664.0 pg/mL
- % VIRAL CONCENTRATION ([1]; 0.32 μM): 96.1%
- P24 value as measurement of HIV concentration ([1]; 0.32 μM): 672.3 pg/mL and 654.6 pg/mL and 665.0 pg/mL
- MEAN P24 value ([1]; 1.0 μM): 371.5 pg/mL
- % VIRAL CONCENTRATION ([1]; 1.0 μM): 53.7%
- P24 value as measurement of HIV concentration ([1]; 1.0 μM): 407.1 pg/mL and 351.2 pg/mL and 356.1 pg/mL
- MEAN P24 value ([1]; 3.2 μM): 5.5 pg/mL
- % VIRAL CONCENTRATION ([1]; 3.2 μM): 0.8%
- MEAN P24 value ([1]; 10 μM): -6.1 pg/mL
- % VIRAL CONCENTRATION ([1]; 10 μM): −0.9%
- MEAN P24 value ([1]; 32 μM): -8.8 pg/mL
- % VIRAL CONCENTRATION ([1]; 32 μM): −1.3%
- MEAN P24 value ([1]; 100 μM): -27 pg/mL
- % VIRAL CONCENTRATION ([1]; 100 μM): −3.9%
- IC50 ([1]; average of three separate tests, p24 production, cell-to-cell transmission of HIV, read-out: calculated 50% inhibition (IC50) / average inhibitory concentration 50%): 1160 nM
- toxic effects after oral administration (Sprague-Dawley rats): No toxic effects
